According to the supplement of paper PMC7021759:
± gives the standard deviation of the averaged measurements.

Test system: SK-N-MM (SKNMM-MYCN, doxycycline-inducible MYCN)
Assay: area under dose-response curve (CellTiter-Glo viability normalised to plate controls) (AUC (arbitrary units)); higher = more loss of viability; extreme values may be limits of the assay
Procedure, shortened: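 In 96-well plates, SK-N-MM cells with doxycycline-inducible MYCN (1250 cells/100 μL) were given medium with or without doxycycline about 24 h after plating. Compound dilution series of 10 points at 1:3 were added two days later and again on day 4, and CellTiter-Glo luminescence was recorded 3 or 8 days after drugging. The area under the dose-response curve was derived from log2 signals normalised to the positive and negative controls on each plate.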

[1] = MYCN induction (doxycycline): +doxycycline (MYCN induced), time after drugging: 3 days
[2] = MYCN induction (doxycycline): +doxycycline (MYCN induced), time after drugging: 8 days
[3] = MYCN induction (doxycycline): no doxycycline (MYCN not induced), time after drugging: 3 days
[4] = MYCN induction (doxycycline): no doxycycline (MYCN not induced), time after drugging: 8 days

Row | SMILES | area under dose-response curve [1] | area under dose-response curve [2] | area under dose-response curve [3] | area under dose-response curve [4]
1 | COC(=O)[C@]12CCC(C)(C)C[C@H]1[C@H]1C(=O)C=C3[C@@]4(C)C=C(C#N)C(=O)C(C)(C)[C@@H]4CC[C@@]3(C)[C@]1(C)CC2 [BARDOXOLONE METHYL] | 212 | 243 | 216 | 226
2 | C[C@H]1C[C@H]2[C@@H]3CCC4=CC(=O)C=C[C@]4(C)[C@@]3(F)[C@@H](O)C[C@]2(C)[C@@]1(O)C(=O)CO [BETAMETHASONE] | 0 | 0 | 0 | 
3 | C=C(c1ccc(C(=O)O)cc1)c1cc2c(cc1C)C(C)(C)CCC2(C)C [BEXAROTENE] | 4.22 ± 5.2 |  | 11.9 | 0
4 | CC[C@@H]1C(=O)N(C)c2cnc(Nc3ccc(C(=O)NC4CCN(C)CC4)cc3OC)nc2N1C1CCCC1 [BI-2536] | 85.3 | 213 | 65.4 | 92.1
5 | Cn1cnc2c(F)c(Nc3ccc(Br)cc3F)c(C(=O)NOCCO)cc21 [BINIMETINIB] | 0 | 0 | 17.9 | 56.9
6 | Cc1c(N)nc([C@H](CC(N)=O)NC[C@H](N)C(N)=O)nc1C(=O)N[C@H](C(=O)N[C@H](C)[C@@H](O)[C@H](C)C(=O)N[C@H](C(=O)NCCc1nc(-c2nc(C(=O)NCCC[S+](C)C)cs2)cs1)[C@@H](C)O)[C@@H](OC1OC(CO)C(O)C(O)C1OC1OC(CO)C(O)C(OC(N)=O)C1O)c1cnc[nH]1 (stereo partly drawn) [BLEOMYCIN] | 0 | 0 | 0 | 0
7 | CC(C)C[C@H](NC(=O)[C@H](Cc1ccccc1)NC(=O)c1cnccn1)B(O)O [BORTEZOMIB] | 264 | 382 | 245 | 374
8 | COc1cc(Nc2c(C#N)cnc3cc(OCCCN4CCN(C)CC4)c(OC)cc23)c(Cl)cc1Cl [BOSUTINIB] | 0.583 | 0.0371 | 0.885 | 0.202
9 | O=c1[nH]c(=O)n([C@H]2C[C@H](O)[C@@H](CO)O2)cc1/C=C/Br [BRIVUDINE] | 0.716 | 11.1 | 0 | 0.883
10 | Nc1cc(C(F)(F)F)c(-c2cc(N3CCOCC3)nc(N3CCOCC3)n2)cn1 [BUPARLISIB] | 91.8 | 150 | 65.7 | 86.9
11 | CO[C@H]1C(=O)[C@]2(C)[C@@H](OC)C[C@H]3OC[C@@]3(OC(C)=O)[C@H]2[C@H](OC(=O)c2ccccc2)[C@]2(O)C[C@H](OC(=O)[C@H](O)[C@@H](NC(=O)OC(C)(C)C)c3ccccc3)C(C)=C1C2(C)C [CABAZITAXEL] | 195 | 350 | 140 | 225
12 | COc1cc2nccc(Oc3ccc(NC(=O)C4(C(=O)Nc5ccc(F)cc5)CC4)cc3)c2cc1OC [CABOZANTINIB] | 0 | 0 | 0 | 0
13 | CC(C)C[C@H](NC(=O)[C@H](CCc1ccccc1)NC(=O)CN1CCOCC1)C(=O)N[C@@H](Cc1ccccc1)C(=O)N[C@@H](CC(C)C)C(=O)[C@@]1(C)CO1 [CARFILZOMIB] | 295 | 404 | 286 | 398
14 | CC(=O)c1ccc2c(c1)c1cc(C(C)=O)ccc1n2CCNC(C)C [CBL-0137] | 116 | 176 | 94.2 | 172
15 | O=C(Nc1ccc(Nc2nccc(Nc3cc(C4CCCC4)[nH]n3)n2)cc1)Nc1cccc(C(F)(F)F)c1 [CD532] | 175 | 211 | 156 | 191
16 | Cc1cc(Nc2ncc(Cl)c(Nc3ccccc3S(=O)(=O)C(C)C)n2)c(OC(C)C)cc1C1CCNCC1 [CERITINIB] | 175 | 168 | 172 | 170
17 | CN1C(=O)[C@@]23C[C@]4([C@]56C[C@@]78SS[C@@](CO)(C(=O)N7[C@H]5Nc5ccccc56)N(C)C8=O)c5ccccc5N[C@@H]4N2C(=O)[C@]1(CO)SS3 [CHAETOCIN] | 327 | 374 | 349 | 373
18 | O=C(O)CCCc1ccc(N(CCCl)CCCl)cc1 [CHLORAMBUCIL] | 0.922 | 0 | 0.476 | 2.34

Row | SMILES | area under dose-response curve [1] | area under dose-response curve [2] | area under dose-response curve [3] | area under dose-response curve [4]
19 | Cc1cc(C2CCCCC2)n(O)c(=O)c1 [CICLOPIROX] | 0 | 97.9 | 15.5 | 41.6
20 | Nc1nc(Cl)nc2c1ncn2[C@H]1C[C@H](O)[C@@H](CO)O1 [CLADRIBINE] | 51.7 | 225 | 35.7 | 110
21 | Nc1nc(Cl)nc2c1ncn2[C@@H]1O[C@H](CO)[C@@H](O)[C@@H]1F [CLOFARABINE] | 67.5 | 248 | 43 | 141
22 | O=C(c1ccc(F)c(F)c1Nc1ccc(I)cc1F)N1CC(O)([C@@H]2CCCCN2)C1 [COBIMETINIB] |  | 145 | 51.1 | 104
23 | Cc1sc2c(c1C)C(c1ccc(Cl)cc1)=N[C@@H](CC(N)=O)c1nnc(C)n1-2 [CPI-203] | 2.86 | 38.6 | 8.36 | 30.9
24 | CC1(COc2ccc3c(c2)ncn3-c2ccc3cccc(N4CCC(N)CC4)c3n2)COC1 [CRENOLANIB] | 0 | 136 | 0 | 146
25 | C[C@@H](Oc1cc(-c2cnn(C3CCNCC3)c2)cnc1N)c1c(Cl)ccc(F)c1Cl [CRIZOTINIB] | 145 | 196 | 147 | 178
26 | Cc1cnc(CNC(=O)c2c(=O)c3ccc(N4CCCN(C)CC4)nc3n3c2sc2ccccc23)cn1 [CX-5461] |  | 11.3 | 11.7 | 
27 | CN1CCCN(C(=O)c2cccc(-c3ccc(/C=C4/C(=O)Nc5ccc(Cl)cc54)o3)c2)CC1 [CX-6258] | 165 | 206 | 166 | 202
28 | CC[C@H](Nc1nc(NCc2cnc(C)cc2C)c2ncn(C(C)C)c2n1)[C@@H](C)O [CYC-065] | 66.2 | 165 | 45.7 | 160
29 | O=P1(N(CCCl)CCCl)NCCCO1 (stereo not drawn) [CYCLOPHOSPHAMIDE] | 0 | 0 | 0 | 
30 | Nc1ccn([C@@H]2O[C@H](CO)[C@@H](O)[C@@H]2O)c(=O)n1 [CYTARABINE] | 40.4 | 221 | 33.7 | 132
31 | CC(C)(C)c1nc(-c2cccc(NS(=O)(=O)c3c(F)cccc3F)c2F)c(-c2ccnc(N)n2)s1 [DABRAFENIB] | 9.29 | 0 | 14.1 | 10.8
32 | Cc1c2oc3c(C)ccc(C(=O)N[C@@H]4C(=O)N[C@H](C(C)C)C(=O)N5CCC[C@H]5C(=O)N(C)CC(=O)N(C)[C@@H](C(C)C)C(=O)O[C@@H]4C)c3nc-2c(C(=O)N[C@@H]2C(=O)N[C@H](C(C)C)C(=O)N3CCC[C@H]3C(=O)N(C)CC(=O)N(C)[C@@H](C(C)C)C(=O)O[C@@H]2C)c(N)c1=O [DACTINOMYCIN] | 140 | 282 | 91.4 | 210
33 | Cn1c(=O)n(-c2ccc(C(C)(C)C#N)cc2)c2c3cc(-c4cnc5ccccc5c4)ccc3ncc21 [DACTOLISIB] | 73.9 | 132 | 62.3 | 96.3
34 | Cc1nc(Nc2ncc(C(=O)Nc3c(C)cccc3Cl)s2)cc(N2CCN(CCO)CC2)n1 [DASATINIB] | 39.9 | 121 | 40 | 51.4
35 | Nc1ncn([C@H]2C[C@H](O)[C@@H](CO)O2)c(=O)n1 [DECITABINE] | 4.2 | 169 | 0.521 | 67.4
36 | C[C@H]1[C@@H](O)O[C@@H]2O[C@@]3(C)CC[C@H]4[C@H](C)CC[C@@H]1[C@@]24OO3 [DIHYDROARTEMISININ] | 62.1 | 116 | 37 | 73.1
